Data taken from a compilation of properties of binary mixtures (doi:10.1080/00986445.2015.1114477).

Assay: xn = mol fraction of the nth substance listed
Conditions: 100 kPa

Question: Which viscosity (288.15 K, x1 = 1) does the source give for CN1CCCC1=O + CCCCCC[n+]1ccn(C)c1.[Cl-] here?
Answer: 1.989 mPa·s

Question: What about the viscosity (293.15 K, x1 = 1) of the same compound?
Answer: 1.853 mPa·s

Question: And the viscosity (298.15 K, x1 = 1)?
Answer: 1.679 mPa·s

Question: And the viscosity (303.15 K, x1 = 1)?
Answer: 1.556 mPa·s

Question: And the viscosity (308.15 K, x1 = 1)?
Answer: 1.441 mPa·s

Question: And the viscosity (313.15 K, x1 = 1)?
Answer: 1.323 mPa·s

Question: And the viscosity (318.15 K, x1 = 1)?
Answer: 1.259 mPa·s

Question: And the viscosity (323.15 K, x1 = 1)?
Answer: 1.148 mPa·s

Question: And the viscosity (328.15 K, x1 = 1)?
Answer: 1.065 mPa·s

Question: And the viscosity (333.15 K, x1 = 1)?
Answer: 1.029 mPa·s

Question: What does the source list for CCCCCCCCn1cc[n+](C)c1.[Cl-] + CN1CCCC1=O?
Answer: viscosity (288.15 K, x2 = 0.3221): 1176 mPa·s; viscosity (288.15 K, x2 = 0.43): 560 mPa·s; viscosity (288.15 K, x2 = 0.5321): 204 mPa·s; viscosity (288.15 K, x2 = 0.6343): 86 mPa·s; viscosity (288.15 K, x2 = 0.7195): 32.3 mPa·s; viscosity (288.15 K, x2 = 0.8143): 12.78 mPa·s; viscosity (288.15 K, x2 = 0.9085): 5.24 mPa·s; viscosity (293.15 K, x2 = 0.21): 2103 mPa·s; viscosity (293.15 K, x2 = 0.43): 390 mPa·s; viscosity (293.15 K, x2 = 0.5321): 149.8 mPa·s; viscosity (293.15 K, x2 = 0.6343): 66.1 mPa·s; viscosity (293.15 K, x2 = 0.7195): 26.2 mPa·s; viscosity (293.15 K, x2 = 0.8143): 10.86 mPa·s; viscosity (293.15 K, x2 = 0.9085): 4.63 mPa·s; viscosity (298.15 K, x2 = 0.21): 1299 mPa·s; viscosity (298.15 K, x2 = 0.43): 279 mPa·s; viscosity (298.15 K, x2 = 0.5321): 112.3 mPa·s; viscosity (298.15 K, x2 = 0.6343): 51.9 mPa·s; viscosity (298.15 K, x2 = 0.7195): 21.09 mPa·s; viscosity (298.15 K, x2 = 0.8143): 9.32 mPa·s; viscosity (298.15 K, x2 = 0.9085): 4.13 mPa·s; viscosity (303.15 K, x2 = 0.21): 878 mPa·s; viscosity (303.15 K, x2 = 0.3221): 384 mPa·s; viscosity (303.15 K, x2 = 0.43): 207 mPa·s; viscosity (303.15 K, x2 = 0.5321): 86.1 mPa·s; viscosity (303.15 K, x2 = 0.6343): 41.4 mPa·s; viscosity (303.15 K, x2 = 0.7195): 17.68 mPa·s; viscosity (303.15 K, x2 = 0.8143): 8.08 mPa·s; viscosity (303.15 K, x2 = 0.9085): 3.71 mPa·s; viscosity (308.15 K, x2 = 0.21): 619 mPa·s; viscosity (308.15 K, x2 = 0.3221): 279 mPa·s; viscosity (308.15 K, x2 = 0.43): 154.3 mPa·s; viscosity (308.15 K, x2 = 0.5321): 67.1 mPa·s; viscosity (308.15 K, x2 = 0.6343): 33.5 mPa·s; viscosity (308.15 K, x2 = 0.8143): 7.07 mPa·s; viscosity (313.15 K, x2 = 0.21): 442 mPa·s; viscosity (313.15 K, x2 = 0.3221): 208 mPa·s; viscosity (313.15 K, x2 = 0.43): 117.6 mPa·s; viscosity (313.15 K, x2 = 0.5321): 53.3 mPa·s; viscosity (313.15 K, x2 = 0.6343): 27.6 mPa·s; viscosity (313.15 K, x2 = 0.7195): 12.7 mPa·s; viscosity (313.15 K, x2 = 0.8143): 6.24 mPa·s; viscosity (313.15 K, x2 = 0.9085): 3.05 mPa·s; viscosity (318.15 K, x2 = 0.3221): 156.4 mPa·s; viscosity (318.15 K, x2 = 0.43): 91.2 mPa·s; viscosity (318.15 K, x2 = 0.6343): 22.98 mPa·s; viscosity (318.15 K, x2 = 0.7195): 10.97 mPa·s; viscosity (318.15 K, x2 = 0.9085): 2.79 mPa·s; viscosity (323.15 K, x2 = 0.3221): 120.6 mPa·s; viscosity (323.15 K, x2 = 0.43): 72 mPa·s; viscosity (323.15 K, x2 = 0.5321): 35.6 mPa·s; viscosity (323.15 K, x2 = 0.6343): 19 mPa·s; viscosity (323.15 K, x2 = 0.7195): 9.55 mPa·s; viscosity (323.15 K, x2 = 0.9085): 2.57 mPa·s; viscosity (328.15 K, x2 = 0.3221): 94.4 mPa·s; viscosity (328.15 K, x2 = 0.43): 57.7 mPa·s; viscosity (328.15 K, x2 = 0.5321): 29.5 mPa·s; viscosity (328.15 K, x2 = 0.6343): 16.2 mPa·s; viscosity (328.15 K, x2 = 0.7195): 8.38 mPa·s; viscosity (328.15 K, x2 = 0.8143): 4.46 mPa·s; viscosity (328.15 K, x2 = 0.9085): 2.377 mPa·s; viscosity (333.15 K, x2 = 0.21): 137.7 mPa·s; viscosity (333.15 K, x2 = 0.3221): 76.3 mPa·s; viscosity (333.15 K, x2 = 0.43): 46.7 mPa·s; viscosity (333.15 K, x2 = 0.5321): 24.9 mPa·s; viscosity (333.15 K, x2 = 0.6343): 14.09 mPa·s; viscosity (333.15 K, x2 = 0.7195): 7.41 mPa·s; viscosity (333.15 K, x2 = 0.8143): 4.04 mPa·s; viscosity (333.15 K, x2 = 0.9085): 2.211 mPa·s

Question: Which results are given for CN1CCN(C)C1=O + CCCCCC[n+]1ccn(C)c1.[Cl-]?
Answer: viscosity (288.15 K, x2 = 0.1999): 18.72 mPa·s; viscosity (288.15 K, x2 = 0.2985): 49.9 mPa·s; viscosity (288.15 K, x2 = 0.3856): 124.2 mPa·s; viscosity (288.15 K, x2 = 0.4985): 301 mPa·s; viscosity (288.15 K, x2 = 0.6069): 707 mPa·s; viscosity (288.15 K, x2 = 0.6969): 1575 mPa·s; viscosity (293.15 K, x2 = 0): 2.139 mPa·s; viscosity (293.15 K, x2 = 0.1007): 5.49 mPa·s; viscosity (293.15 K, x2 = 0.1999): 15.59 mPa·s; viscosity (293.15 K, x2 = 0.2985): 39.2 mPa·s; viscosity (293.15 K, x2 = 0.3856): 92.5 mPa·s; viscosity (293.15 K, x2 = 0.4985): 214 mPa·s; viscosity (293.15 K, x2 = 0.6069): 477 mPa·s; viscosity (293.15 K, x2 = 0.6969): 1029 mPa·s; viscosity (293.15 K, x2 = 0.7981): 2308 mPa·s; viscosity (298.15 K, x2 = 0): 1.945 mPa·s; viscosity (298.15 K, x2 = 0.1007): 4.82 mPa·s; viscosity (298.15 K, x2 = 0.1999): 13.12 mPa·s; viscosity (298.15 K, x2 = 0.2985): 31.2 mPa·s; viscosity (298.15 K, x2 = 0.3856): 71.6 mPa·s; viscosity (298.15 K, x2 = 0.4985): 155.5 mPa·s; viscosity (298.15 K, x2 = 0.6069): 332 mPa·s; viscosity (298.15 K, x2 = 0.6969): 694 mPa·s; viscosity (298.15 K, x2 = 0.7981): 1473 mPa·s; viscosity (303.15 K, x2 = 0): 1.76 mPa·s; viscosity (303.15 K, x2 = 0.1007): 4.26 mPa·s; viscosity (303.15 K, x2 = 0.2985): 25.4 mPa·s; viscosity (303.15 K, x2 = 0.3856): 55.9 mPa·s; viscosity (303.15 K, x2 = 0.4985): 116.4 mPa·s; viscosity (303.15 K, x2 = 0.6069): 241 mPa·s; viscosity (303.15 K, x2 = 0.6969): 478 mPa·s; viscosity (303.15 K, x2 = 0.7981): 978 mPa·s; viscosity (308.15 K, x2 = 0.1007): 3.8 mPa·s; viscosity (308.15 K, x2 = 0.2985): 20.72 mPa·s; viscosity (308.15 K, x2 = 0.4985): 88.9 mPa·s; viscosity (308.15 K, x2 = 0.6069): 185 mPa·s; viscosity (308.15 K, x2 = 0.6969): 338 mPa·s; viscosity (308.15 K, x2 = 0.7981): 666 mPa·s; viscosity (313.15 K, x2 = 0): 1.491 mPa·s; viscosity (313.15 K, x2 = 0.1007): 3.41 mPa·s; viscosity (313.15 K, x2 = 0.1999): 7.42 mPa·s; viscosity (313.15 K, x2 = 0.2985): 17.34 mPa·s; viscosity (313.15 K, x2 = 0.3856): 35.7 mPa·s; viscosity (313.15 K, x2 = 0.4985): 69.2 mPa·s; viscosity (313.15 K, x2 = 0.6069): 138.5 mPa·s; viscosity (313.15 K, x2 = 0.6969): 246 mPa·s; viscosity (313.15 K, x2 = 0.7981): 468 mPa·s; viscosity (318.15 K, x2 = 0): 1.381 mPa·s; viscosity (318.15 K, x2 = 0.1007): 3.08 mPa·s; viscosity (318.15 K, x2 = 0.1999): 6.47 mPa·s; viscosity (318.15 K, x2 = 0.2985): 14.87 mPa·s; viscosity (318.15 K, x2 = 0.3856): 29.2 mPa·s; viscosity (318.15 K, x2 = 0.4985): 54.9 mPa·s; viscosity (318.15 K, x2 = 0.6069): 106.2 mPa·s; viscosity (318.15 K, x2 = 0.7981): 335 mPa·s; viscosity (323.15 K, x2 = 0): 1.28 mPa·s; viscosity (323.15 K, x2 = 0.1999): 5.7 mPa·s; viscosity (323.15 K, x2 = 0.3856): 24.3 mPa·s; viscosity (323.15 K, x2 = 0.6069): 82.7 mPa·s; viscosity (323.15 K, x2 = 0.6969): 137.9 mPa·s; viscosity (323.15 K, x2 = 0.7981): 247 mPa·s; viscosity (328.15 K, x2 = 0.1007): 2.55 mPa·s; viscosity (328.15 K, x2 = 0.1999): 5.07 mPa·s; viscosity (328.15 K, x2 = 0.2985): 11.09 mPa·s; viscosity (328.15 K, x2 = 0.3856): 20.29 mPa·s; viscosity (328.15 K, x2 = 0.4985): 37.1 mPa·s; viscosity (328.15 K, x2 = 0.6069): 64.8 mPa·s; viscosity (328.15 K, x2 = 0.6969): 106.7 mPa·s; viscosity (328.15 K, x2 = 0.7981): 184 mPa·s; viscosity (333.15 K, x2 = 0): 1.117 mPa·s; viscosity (333.15 K, x2 = 0.1007): 2.337 mPa·s; viscosity (333.15 K, x2 = 0.1999): 4.54 mPa·s; viscosity (333.15 K, x2 = 0.3856): 17.2 mPa·s; viscosity (333.15 K, x2 = 0.4985): 29.9 mPa·s; viscosity (333.15 K, x2 = 0.6069): 52.5 mPa·s; viscosity (333.15 K, x2 = 0.6969): 83.8 mPa·s; viscosity (333.15 K, x2 = 0.7981): 141.2 mPa·s
